Data set [1] has as its system PSMA+ PC3 PIP cells. Nature of the data set: Clonogenic survival assay. The data set is classed as cell-based, human. As to conditions: 48 h treatment at 37 °C. The protocol: Cells (200–1000) were seeded in 60 mm culture dishes. Each radioligand (^177Lu-L1, ^177Lu-Alb-L2, ^177Lu-Alb-L5) was diluted in a prewarmed medium at different concentrations (0, 0.37, 1.85, 3.7, 18.5, 37, 185, and 370 kBq/mL) and incubated with the cells for 48 h, as we previously reported. The radiolabeled compound was replaced with fresh medium, and cells were incubated for 2 weeks or until colonies had at least 50 cells. The colonies were stained with crystal violet and counted, and the surviving fraction was normalized to the control plating efficiency, as previously described.

The test system of data set [2] is patients with metastatic castration-resistant prostate cancer. More on the design: method as in PMID 34161051, PMID 34385339. As to conditions: treatment group of randomized patients; cited from earlier work.
In data set [3] the test system is patients. Also noted: method as in PMID 32949253. As to conditions: than 177Lu-EB-PSMA-617 and 177Lu-PSMA-ALB-56; clinical studies; cited from earlier work.

In the case of `O=C(O)CCC(NC(=O)NC(CCCCN(Cc1ccc(Br)cc1)C(=O)CCCCNC(=O)CN1CCN(CC(=O)O)CCN(CC(=O)O)CCN(CC(=O)O)CC1)C(=O)O)C(=O)O` (stereo not shown) [177Lu-L1, metal not drawn], in data set [1], the “Activity to reduce cell survival to 37% (A0)” value amounted to 18.5 kBq/mL and the “Concentration of radioactivity for complete cell killing” value is given as 370 kBq/mL.
`O=C([O-])CN1CCN(CC(=O)[O-])CCN(CC(=O)NCC2CCC(C(=O)N[C@@H](Cc3ccc4ccccc4c3)C(=O)NCCCC[C@H](NC(=O)N[C@@H](CCC(=O)O)C(=O)O)C(=O)O)CC2)CCN(CC(=O)[O-])CC1.[177Lu+3]` (stereo partly shown) [177Lu-PSMA-617]: the Median overall survival in data set [2] is on record as 15.3 months. Also, the “Kidney-absorbed dose, fold lower” value in data set [3] is on record as ~ 4 fold.

The values above are taken from article PMC10459686, “Preclinical Evaluation of a New Series of Albumin-Binding ^177Lu-Labeled PSMA-Based Low-Molecular-Weight Radiotherapeutics” (Molecules, 2023).
